What all share (assay): cell-based
One assay has as its target hNav1.5 (Homo sapiens, UniProt Q14524). The following applies: for IC50: PatchXpress, read-out: PX hNav1.5 Tonic IC50.
Assay [1] deals with T1, hNav1.4 (Homo sapiens, UniProt P35499). To be noted: for IC50: PatchXpress, read-out: PX hNav1.4 Tonic IC50.
Another assay deals with hNav1.7 (Homo sapiens, UniProt Q15858). It counts as cell-based. The following applies: PatchXpress, read-out: PX hNav1.7 Tonic IC50.
Assay [2] concerns the target T1, hNav1.4. The following applies: ratio of IonWorks Quattro IC50 values.
[3] abbreviates: * = at high concentrations compound would wash off slowly or not at all.

“And” between values parts separate entries of the source, which are not always exact repeats. Equal values may be shown once. Read-outs that look alike come from different tables or passages of the source.

Sequence of hNav1.7 (Q15858 whole entry): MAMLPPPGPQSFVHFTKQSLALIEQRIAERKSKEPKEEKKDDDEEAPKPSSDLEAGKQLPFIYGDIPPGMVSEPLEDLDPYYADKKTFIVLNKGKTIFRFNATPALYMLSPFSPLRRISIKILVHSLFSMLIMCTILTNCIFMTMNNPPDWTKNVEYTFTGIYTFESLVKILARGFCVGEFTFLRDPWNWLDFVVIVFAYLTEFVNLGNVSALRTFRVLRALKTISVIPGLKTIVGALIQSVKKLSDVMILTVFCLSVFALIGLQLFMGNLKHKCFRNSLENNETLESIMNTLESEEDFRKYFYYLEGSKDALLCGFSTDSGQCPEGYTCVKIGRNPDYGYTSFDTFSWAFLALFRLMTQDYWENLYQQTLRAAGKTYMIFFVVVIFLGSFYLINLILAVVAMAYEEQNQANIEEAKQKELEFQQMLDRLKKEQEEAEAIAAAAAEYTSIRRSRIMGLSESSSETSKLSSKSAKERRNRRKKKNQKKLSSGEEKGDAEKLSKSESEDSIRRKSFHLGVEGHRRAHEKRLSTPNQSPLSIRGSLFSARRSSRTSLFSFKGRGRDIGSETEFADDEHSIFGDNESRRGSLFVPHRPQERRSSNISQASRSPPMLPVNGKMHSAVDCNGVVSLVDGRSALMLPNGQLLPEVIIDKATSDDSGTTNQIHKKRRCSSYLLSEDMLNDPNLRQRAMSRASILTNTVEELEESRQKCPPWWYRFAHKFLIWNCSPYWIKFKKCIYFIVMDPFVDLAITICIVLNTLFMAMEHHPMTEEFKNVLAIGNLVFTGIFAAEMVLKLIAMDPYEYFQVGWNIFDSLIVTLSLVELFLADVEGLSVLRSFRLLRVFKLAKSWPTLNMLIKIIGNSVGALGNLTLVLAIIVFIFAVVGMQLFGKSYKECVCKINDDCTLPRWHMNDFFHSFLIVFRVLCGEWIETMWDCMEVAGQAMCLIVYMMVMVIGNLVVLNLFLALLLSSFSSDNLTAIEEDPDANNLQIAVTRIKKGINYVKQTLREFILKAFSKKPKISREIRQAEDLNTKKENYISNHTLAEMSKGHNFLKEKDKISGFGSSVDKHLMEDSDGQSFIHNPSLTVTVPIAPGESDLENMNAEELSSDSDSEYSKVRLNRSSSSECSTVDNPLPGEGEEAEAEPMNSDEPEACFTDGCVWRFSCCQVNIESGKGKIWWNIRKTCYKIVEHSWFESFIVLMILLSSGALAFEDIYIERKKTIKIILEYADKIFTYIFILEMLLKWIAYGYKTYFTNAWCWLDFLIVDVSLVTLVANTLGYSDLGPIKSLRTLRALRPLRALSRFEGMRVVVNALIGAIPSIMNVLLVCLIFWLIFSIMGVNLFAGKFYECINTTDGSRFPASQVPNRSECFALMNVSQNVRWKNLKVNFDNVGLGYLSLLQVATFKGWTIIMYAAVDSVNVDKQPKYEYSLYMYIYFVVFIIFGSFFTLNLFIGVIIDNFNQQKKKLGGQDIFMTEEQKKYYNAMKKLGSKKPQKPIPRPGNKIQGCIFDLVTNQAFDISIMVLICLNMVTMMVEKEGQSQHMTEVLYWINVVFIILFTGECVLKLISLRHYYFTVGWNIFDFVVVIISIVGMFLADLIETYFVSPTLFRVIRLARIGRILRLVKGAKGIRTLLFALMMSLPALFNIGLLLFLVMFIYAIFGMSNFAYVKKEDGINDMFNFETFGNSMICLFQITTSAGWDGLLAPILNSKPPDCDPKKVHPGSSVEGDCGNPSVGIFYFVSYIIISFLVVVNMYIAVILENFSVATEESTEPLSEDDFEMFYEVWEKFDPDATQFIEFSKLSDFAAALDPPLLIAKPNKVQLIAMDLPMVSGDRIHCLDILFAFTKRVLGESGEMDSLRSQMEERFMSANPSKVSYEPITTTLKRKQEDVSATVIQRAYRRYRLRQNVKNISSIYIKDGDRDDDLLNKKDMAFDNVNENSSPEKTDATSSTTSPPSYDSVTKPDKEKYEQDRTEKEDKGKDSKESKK
T1 sequence (P35499 whole entry): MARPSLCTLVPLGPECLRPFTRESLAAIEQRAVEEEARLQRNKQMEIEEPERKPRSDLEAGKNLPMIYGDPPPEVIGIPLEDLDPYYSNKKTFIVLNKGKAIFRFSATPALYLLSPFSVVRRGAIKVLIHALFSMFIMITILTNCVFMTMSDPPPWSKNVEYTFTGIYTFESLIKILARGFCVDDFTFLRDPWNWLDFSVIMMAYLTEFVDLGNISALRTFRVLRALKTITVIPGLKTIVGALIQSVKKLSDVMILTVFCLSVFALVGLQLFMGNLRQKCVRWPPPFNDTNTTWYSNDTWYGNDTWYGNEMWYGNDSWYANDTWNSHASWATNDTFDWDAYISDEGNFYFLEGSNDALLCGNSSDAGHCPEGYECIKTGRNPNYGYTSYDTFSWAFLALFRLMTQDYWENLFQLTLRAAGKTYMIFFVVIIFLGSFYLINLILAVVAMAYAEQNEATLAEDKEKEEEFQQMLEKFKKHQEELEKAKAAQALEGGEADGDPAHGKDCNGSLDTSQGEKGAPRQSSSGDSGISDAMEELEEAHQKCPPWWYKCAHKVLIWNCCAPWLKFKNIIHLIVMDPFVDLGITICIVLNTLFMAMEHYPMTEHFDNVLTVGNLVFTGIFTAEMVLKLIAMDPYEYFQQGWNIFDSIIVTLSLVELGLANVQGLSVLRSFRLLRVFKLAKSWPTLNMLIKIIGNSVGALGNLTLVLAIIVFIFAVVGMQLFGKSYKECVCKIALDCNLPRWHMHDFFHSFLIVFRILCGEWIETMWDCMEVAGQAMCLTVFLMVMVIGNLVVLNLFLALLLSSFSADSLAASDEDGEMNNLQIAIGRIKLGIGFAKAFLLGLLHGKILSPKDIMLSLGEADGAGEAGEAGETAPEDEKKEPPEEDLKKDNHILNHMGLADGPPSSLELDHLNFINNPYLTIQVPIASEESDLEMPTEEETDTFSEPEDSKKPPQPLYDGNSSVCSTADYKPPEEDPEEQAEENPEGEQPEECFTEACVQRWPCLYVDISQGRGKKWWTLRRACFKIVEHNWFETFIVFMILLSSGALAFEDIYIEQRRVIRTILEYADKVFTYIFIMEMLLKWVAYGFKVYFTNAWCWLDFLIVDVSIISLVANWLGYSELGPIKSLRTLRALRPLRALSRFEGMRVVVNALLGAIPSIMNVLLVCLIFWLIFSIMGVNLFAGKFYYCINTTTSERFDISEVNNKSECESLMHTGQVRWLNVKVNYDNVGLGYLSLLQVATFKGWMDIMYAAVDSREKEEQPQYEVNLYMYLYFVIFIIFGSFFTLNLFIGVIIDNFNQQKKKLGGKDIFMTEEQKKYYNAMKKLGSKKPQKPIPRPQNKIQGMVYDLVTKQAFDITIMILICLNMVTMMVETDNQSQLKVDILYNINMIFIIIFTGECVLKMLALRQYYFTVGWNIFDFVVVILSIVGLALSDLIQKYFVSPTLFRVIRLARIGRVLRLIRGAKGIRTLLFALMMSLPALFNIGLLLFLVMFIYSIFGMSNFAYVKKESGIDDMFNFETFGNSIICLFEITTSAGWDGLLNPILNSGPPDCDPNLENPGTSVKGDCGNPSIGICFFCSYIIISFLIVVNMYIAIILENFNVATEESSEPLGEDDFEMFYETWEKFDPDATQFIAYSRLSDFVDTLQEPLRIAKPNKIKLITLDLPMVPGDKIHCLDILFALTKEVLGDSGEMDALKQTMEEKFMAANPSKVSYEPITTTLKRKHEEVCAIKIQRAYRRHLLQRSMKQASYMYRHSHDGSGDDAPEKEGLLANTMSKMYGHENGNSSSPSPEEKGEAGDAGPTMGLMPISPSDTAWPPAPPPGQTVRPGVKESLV

Take `CC[C@H](C)[C@H](NC(=O)[C@@H](NC(=O)[C@H](CCCCN)NC(=O)[C@H](CCCNC(=N)N)NC(=O)[C@@H]1CSSC[C@@H]2NC(=O)[C@H](C)NC(=O)[C@H](CCCNC(=N)N)NC(=O)[C@H](CCCCN)NC(=O)[C@H](CO)NC(=O)[C@H](CC(=O)O)NC(=O)[C@@H]3CSSC[C@H](NC(=O)[C@H](C)NC(=O)[C@H](CC(C)C)NC(=O)CNC(=O)[C@H](CCC(=O)O)NC(=O)[C@H](CSSC[C@H](NC(=O)[C@@H](N)Cc4ccc(O)cc4)C(=O)N[C@@H](CCC(N)=O)C(=O)N[C@@H](CCCCN)C(=O)N[C@@H](Cc4c[nH]c5ccccc45)C(=O)N[C@@H](CCSC)C(=O)N[C@@H](Cc4c[nH]c5ccccc45)C(=O)N[C@@H]([C@@H](C)O)C(=O)N3)NC2=O)C(=O)N[C@@H](CCCCN)C(=O)N[C@@H](CC(C)C)C(=O)N[C@@H](Cc2c[nH]c3ccccc23)C(=O)N1)[C@@H](C)CC)C(N)=O` [compound 17]: the IC50 on hNav1.5 (setting [3]) was determined as 2750 nM; at hNav1.4 [1] (setting [3]) it was 100 nM; on hNav1.7 (setting [3]), 12 nM. Besides, on hNav1.4 [1] (ratio of PX IC50 values), the Nav1.4/Nav1.7 is reported as 8.
For the compound `CC[C@H](C)[C@H](NC(=O)[C@@H](NC(=O)[C@H](CCCCN)NC(=O)[C@H](CCCNC(=N)N)NC(=O)[C@@H]1CSSC[C@@H]2NC(=O)[C@H](C)NC(=O)[C@H](CCCNC(=N)N)NC(=O)[C@H](CCCCN)NC(=O)[C@H](CO)NC(=O)[C@H](CC(=O)O)NC(=O)[C@@H]3CSSC[C@H](NC(=O)[C@H](CCCNC(=N)N)NC(=O)[C@H](CC(C)C)NC(=O)CNC(=O)[C@H](CCC(=O)O)NC(=O)[C@H](CSSC[C@H](NC(=O)[C@@H](N)Cc4ccc(O)cc4)C(=O)N[C@@H](CCC(N)=O)C(=O)N[C@@H](CCCCN)C(=O)N[C@@H](Cc4c[nH]c5ccccc45)C(=O)N[C@@H](CCSC)C(=O)N[C@@H](Cc4cccc5ccccc45)C(=O)N[C@@H]([C@@H](C)O)C(=O)N3)NC2=O)C(=O)N[C@@H](CCCCN)C(=O)N[C@@H](CC(C)C)C(=O)N[C@@H](Cc2c[nH]c3ccccc23)C(=O)N1)[C@@H](C)CC)C(N)=O` [compound 30], the figures for the IC50 on hNav1.5 (setting [3]), on hNav1.4 [1] (setting [3]) and on hNav1.7 (setting [3]) were 1420 nM, 0.9 nM and 0.4 nM, respectively. In addition, the Nav1.4/Nav1.7 on hNav1.4 [1] (ratio of PX IC50 values) worked out at 2.
On to `CC[C@H](C)[C@H](NC(=O)[C@@H](NC(=O)[C@H](CCCCN)NC(=O)[C@H](CCCNC(=N)N)NC(=O)[C@@H]1CSSC[C@@H]2NC(=O)[C@H](C)NC(=O)[C@H](CCCNC(=N)N)NC(=O)[C@H](CCCCN)NC(=O)[C@H](CO)NC(=O)[C@H](CC(=O)O)NC(=O)[C@@H]3CSSC[C@H](NC(=O)[C@H](CCCNC(=N)N)NC(=O)[C@H](CC(C)C)NC(=O)CNC(=O)[C@H](CCC(=O)O)NC(=O)[C@H](CSSC[C@H](NC(=O)[C@@H](N)CCC(=O)O)C(=O)N[C@@H](CCC(N)=O)C(=O)N[C@@H](CCCCN)C(=O)N[C@@H](Cc4c[nH]c5ccccc45)C(=O)N[C@@H](CCSC)C(=O)N[C@@H](Cc4c[nH]c5ccccc45)C(=O)N[C@@H]([C@@H](C)O)C(=O)N3)NC2=O)C(=O)N[C@@H](CCCCN)C(=O)N[C@@H](CC(C)C)C(=O)N[C@@H](Cc2c[nH]c3ccccc23)C(=O)N1)[C@@H](C)CC)C(N)=O` [compound 49], for which the IC50 came out at 6440 nM on hNav1.5 (setting [3]), 8 nM at hNav1.4 [1] (setting [3]) and 0.3 nM at hNav1.7 (setting [3]). The Nav1.4/Nav1.7 at hNav1.4 [1] (ratio of PX IC50 values) worked out at 27.
For the compound `CC[C@H](C)[C@H](NC(=O)[C@H](CCC(=O)O)NC(=O)[C@H](CCCCN)NC(=O)[C@H](CCCNC(=N)N)NC(=O)[C@@H]1CSSC[C@@H]2NC(=O)[C@H](C)NC(=O)[C@H](CCCNC(=N)N)NC(=O)[C@H](CCCCN)NC(=O)[C@H](CO)NC(=O)[C@H](CC(=O)O)NC(=O)[C@@H]3CSSC[C@H](NC(=O)[C@H](CCCNC(=N)N)NC(=O)[C@H](CC(C)C)NC(=O)CNC(=O)[C@H](CCC(=O)O)NC(=O)[C@H](CSSC[C@H](NC(=O)[C@@H](N)Cc4ccc(O)cc4)C(=O)N[C@@H](CCC(N)=O)C(=O)N[C@@H](CCCCN)C(=O)N[C@@H](Cc4c[nH]c5ccccc45)C(=O)N[C@@H](CCSC)C(=O)N[C@@H](Cc4c[nH]c5ccccc45)C(=O)N[C@@H]([C@@H](C)O)C(=O)N3)NC2=O)C(=O)N[C@@H](CCCCN)C(=O)N[C@@H](CC(C)C)C(=O)N[C@@H](Cc2c[nH]c3ccccc23)C(=O)N1)C(N)=O` [compound 69], the results for the IC50 on hNav1.5 (setting [3]), at hNav1.4 [1] (setting [3]) and at hNav1.7 (setting [3]) were 8800 nM, 300 nM and 1 nM, respectively. Moreover, the Nav1.5/Nav1.7 at hNav1.5 (ratio of PX IC50 values) was 8800. Moreover, the Nav1.4/Nav1.7 at hNav1.4 [1] (ratio of PX IC50 values) is listed as 300.
Take `CCCC[C@@H]1NC(=O)[C@H](Cc2c[nH]c3ccccc23)NC(=O)[C@H](CCCCN)NC(=O)[C@H](CCC(N)=O)NC(=O)[C@@H](NC(=O)[C@@H](N)Cc2ccc(O)cc2)CSSC[C@@H]2NC(=O)[C@@H]3CSSC[C@@H](C(=O)N[C@@H](CCCNC(=N)N)C(=O)N[C@@H](CCCCN)C(=O)N[C@H](C(=O)N[C@H](C(N)=O)[C@@H](C)CC)[C@@H](C)CC)NC(=O)[C@H](Cc4c[nH]c5ccccc45)NC(=O)[C@H](CC(C)C)NC(=O)[C@H](CCCCN)NC(=O)[C@H](CSSC[C@H](NC(=O)[C@H]([C@@H](C)O)NC(=O)[C@H](Cc4c[nH]c5ccccc45)NC1=O)C(=O)N[C@@H](CC(=O)O)C(=O)N[C@@H](Cc1cn(CCCOCCOCCOCCOCCOCCOCCOCCOCCOCCOCCN)nn1)C(=O)N[C@@H](CCCCN)C(=O)N[C@@H](CCCNC(=N)N)C(=O)N[C@@H](C)C(=O)N3)NC(=O)[C@H](CCCNC(=N)N)NC(=O)[C@H](CC(C)C)NC(=O)CNC(=O)[C@H](CCC(=O)O)NC2=O` [compound 256]: the Nav1.5/Nav1.7 on hNav1.5 (ratio of PX IC50 values) stood at 200. Also, the Nav1.4/Nav1.7 on hNav1.4 [1] (ratio of PX IC50 values) is given as 3; at hNav1.4 [2], 4.
For the compound `C#CC[C@H](N)C(=O)N[C@@H](Cc1ccc(O)cc1)C(=O)N[C@H]1CSSC[C@@H]2NC(=O)[C@@H]3CSSC[C@@H](C(=O)N[C@@H](CCCNC(=N)N)C(=O)N[C@@H](CCCCN)C(=O)N[C@H](C(=O)N[C@H](C(N)=O)[C@@H](C)CC)[C@@H](C)CC)NC(=O)[C@H](Cc4c[nH]c5ccccc45)NC(=O)[C@H](CC(C)C)NC(=O)[C@H](CCCCN)NC(=O)[C@H](CSSC[C@H](NC(=O)[C@H]([C@@H](C)O)NC(=O)[C@H](Cc4c[nH]c5ccccc45)NC(=O)[C@H](CCCC)NC(=O)[C@H](Cc4c[nH]c5ccccc45)NC(=O)[C@H](CCCCN)NC(=O)[C@H](CCC(N)=O)NC1=O)C(=O)N[C@@H](CC(=O)O)C(=O)N[C@@H](CO)C(=O)N[C@@H](CCCCN)C(=O)N[C@@H](CCCNC(=N)N)C(=O)N[C@@H](C)C(=O)N3)NC(=O)[C@H](CCC(=O)O)NC(=O)[C@H](CC(C)C)NC(=O)CNC(=O)[C@H](CCC(=O)O)NC2=O` [compound 297], the 50% inhibitory concentration (IC50) at hNav1.5 (tonic block) is 1200 nM; on hNav1.4 [1] (tonic block) it was 804 nM; at hNav1.7 (tonic block), 1.87 nM.
Regarding `C#CC[C@H](N)C(=O)NCCOCCOCCOCCOCCC(=O)NCCCC[C@@H]1NC(=O)[C@H](CCCNC(=N)N)NC(=O)[C@H](CCCCN)NC(=O)[C@H](CO)NC(=O)[C@H](CC(=O)O)NC(=O)[C@@H]2CSSC[C@@H]3NC(=O)[C@H](CCCNC(=N)N)NC(=O)[C@H](CC(C)C)NC(=O)CNC(=O)[C@H](CCC(=O)O)NC(=O)[C@H](CSSC[C@H](NC(=O)[C@H](Cc4ccc(O)cc4)NC(=O)[C@@H](N)CC#N)C(=O)N[C@@H](CCC(N)=O)C(=O)N[C@@H](CCCCN)C(=O)N[C@@H](Cc4c[nH]c5ccccc45)C(=O)N[C@@H](CCCC)C(=O)N[C@@H](Cc4c[nH]c5ccccc45)C(=O)N[C@@H]([C@@H](C)O)C(=O)N2)NC(=O)[C@H](CSSC[C@@H](C(=O)N[C@@H](CCCNC(=N)N)C(=O)N[C@@H](CCCCN)C(=O)N[C@H](C(=O)N[C@H](C(N)=O)[C@@H](C)CC)[C@@H](C)CC)NC(=O)[C@H](Cc2c[nH]c4ccccc24)NC(=O)[C@H](CC(C)C)NC(=O)[C@H](CCCCN)NC3=O)NC1=O` [compound 380], on hNav1.5 (ratio of PX tonic IC50 values), the Nav1.5/Nav1.7 is reported as 0. Moreover, the Nav1.4/Nav1.7 at hNav1.4 [1] (ratio of PX tonic IC50 values) is on record as 0.
Take `C#CC[C@H](N)C(=O)NCCCC[C@@H]1NC(=O)[C@H](CCCNC(=N)N)NC(=O)[C@H](CCCCN)NC(=O)[C@H](CO)NC(=O)[C@H](CC(=O)O)NC(=O)[C@@H]2CSSC[C@@H]3NC(=O)[C@H](CCCNC(=N)N)NC(=O)[C@H](CC(C)C)NC(=O)CNC(=O)[C@H](CCC(=O)O)NC(=O)[C@H](CSSC[C@H](NC(=O)[C@H](Cc4ccc(O)cc4)NC(=O)[C@@H](N)CC#N)C(=O)N[C@@H](CCC(N)=O)C(=O)N[C@@H](CCCCN)C(=O)N[C@@H](Cc4c[nH]c5ccccc45)C(=O)N[C@@H](CCCC)C(=O)N[C@@H](Cc4c[nH]c5ccccc45)C(=O)N[C@@H]([C@@H](C)O)C(=O)N2)NC(=O)[C@H](CSSC[C@@H](C(=O)N[C@@H](CCCNC(=N)N)C(=O)N[C@@H](CCCCN)C(=O)N[C@@H](CCC(=O)O)C(=O)N[C@H](C(N)=O)[C@@H](C)CC)NC(=O)[C@H](Cc2c[nH]c4ccccc24)NC(=O)[C@H](CC(C)C)NC(=O)[C@H](CCCCN)NC3=O)NC1=O` [compound 392]: the IC50 at hNav1.5 (tonic block) was 920 nM and 1450 nM and 2160 nM; at hNav1.4 [1] (tonic block), 86.1 nM and 124 nM.
With `C#CC[C@@H]1NC(=O)[C@@H]2CSSC[C@H](NC(=O)[C@H](Cc3ccc(O)cc3)NC(=O)[C@@H](N)CC#N)C(=O)N[C@@H](CCC(N)=O)C(=O)N[C@@H](CCCCN)C(=O)N[C@@H](Cc3c[nH]c4ccccc34)C(=O)N[C@@H](CCCC)C(=O)N[C@@H](Cc3c[nH]c4ccccc34)C(=O)N[C@@H]([C@@H](C)O)C(=O)N[C@H]3CSSC[C@H](NC(=O)[C@H](CCCNC(=N)N)NC(=O)[C@H](CC(C)C)NC(=O)CNC1=O)C(=O)N[C@@H](CCCCN)C(=O)N[C@@H](CC(C)C)C(=O)N[C@@H](Cc1c[nH]c4ccccc14)C(=O)N[C@H](C(=O)N[C@@H](CCCNC(=N)N)C(=O)N[C@@H](CCCCN)C(=O)N[C@@H](CCC(=O)O)C(=O)N[C@H](C(N)=O)[C@@H](C)CC)CSSC[C@H](NC(=O)[C@H](C)NC(=O)[C@H](CCCNC(=N)N)NC(=O)[C@H](CCCCN)NC(=O)[C@H](CO)NC(=O)[C@H](CC(=O)O)NC3=O)C(=O)N2` [compound 395], the IC50 at hNav1.5 (tonic block) was 710 nM; at hNav1.4 [1] (tonic block) it was 62.5 nM and 212 nM.
